{"source": "paper PMC8918029", "about": "(Journal of medicinal chemistry, 2021)", "key": {"purified γ-secretase": {"target": "purified γ-secretase (Homo sapiens, UniProt P49768)", "test": "Inhibition constant", "type": "biochemical", "conditions": "double-reciprocal plots, varying C100Flag"}, "γ-secretase": {"target": "γ-secretase (Homo sapiens, UniProt P49768)", "test": "Cross-competition kinetic experiments between two inhibitors", "type": "biochemical", "conditions": "[38] = 0, 0.15, 0.30, 0.60 nM; C100 0.50 μM; parallel lines indicate cross-competition"}}, "note": "“Also recorded” adds a separate entry of the source.", "data": [{"smiles": "CC[C@@H](C)[C@@H](NC(=O)[C@H](NC(=O)[C@H](NC(=O)C(C)(C)NC(=O)CNC(=O)[C@H](NC(=O)OC(C)(C)C)C(C)C)C(C)C)C(C)C)C(=O)NC(C)(C)C(=O)N[C@@H](C(=O)N[C@@H](C(=O)NC(C)(C)C(=O)NCCCCCCCCCCC(=O)N[C@H](C(=O)N[C@@H](Cc1ccccc1)[C@H](O)CN(Cc1ccccc1)C(=O)N[C@@H](CC(C)C)C(=O)N[C@H](C(N)=O)C(C)C)C(C)C)C(C)C)[C@H](C)O", "note": "[Compound 38, Boc-^DVal-Gly-Aib-^DVal-^DVal-^DIle-Aib-^DThr- ^DVal-Aib-NH(CH2)10CO-Val-Phe-ψ-Phe-Leu-Val-NH2]", "values": [{"measurement": "Inhibition profile (mode of inhibition)", "setting": "purified γ-secretase", "result": "noncompetitive; also recorded: non-competitive inhibition"}, {"measurement": "Cross-competition with TSA 1 and HPI 2 for binding", "setting": "γ-secretase", "result": "could compete with both TSA 1 and HPI 2; also recorded: competes with both TSA 1 and HPI 2"}]}]}
